Data reported in patent US20250122207A1, “AP2 ASSOCIATED KINASE 1 INHIBITORS AND USES THEREOF” (Satellos Bioscience Inc., priority 2023, published 2025).
pIC50: −log10 of the molar value.

Key:
AAK1 = AAK1 (Homo sapiens, UniProt Q2M2I8); experiment: pAP2M1 cell-based assay (in-cell Western); details: Hela cells co-transfected with AP2M1 and AAK1, 3 hr treatment; class symbols; read-out: AAK1 In-cell Western: IC50
Excerpt: pAP2M1 Cell-Based Assay (in-Cell Western):
The plate was read on Licor Odyssey CLx imaging system (LICOR) to acquire fluorescence intensity at 700 channel and 800 channel.
Data analysis: Fluorescence intensity at 700 channel served as internal standard and 800 channel were normalized with 700 channel.

[1] = target: T1, AAK1 (amino acids T27-A365) (Homo sapiens, UniProt Q2M2I8); experiment: AAK1 pSENs assay; type: biochemical; details: class symbols; read-out: AAK1 pSENs: EIC50
T1 construct: against AAK1 (amino acids T27-A365); 6His (N, cleaved yes)
T1 sequence (Q2M2I8 27-365): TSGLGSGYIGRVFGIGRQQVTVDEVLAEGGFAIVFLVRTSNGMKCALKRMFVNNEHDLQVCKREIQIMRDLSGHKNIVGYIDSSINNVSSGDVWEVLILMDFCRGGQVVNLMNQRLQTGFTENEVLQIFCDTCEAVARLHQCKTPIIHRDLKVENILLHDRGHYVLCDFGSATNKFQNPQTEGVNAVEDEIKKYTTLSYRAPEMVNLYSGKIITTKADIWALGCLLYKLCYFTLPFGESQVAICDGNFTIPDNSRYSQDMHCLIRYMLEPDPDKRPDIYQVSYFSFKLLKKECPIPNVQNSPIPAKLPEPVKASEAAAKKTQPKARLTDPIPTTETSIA
Method: The recombinant proteins were independently expressed in Escherichia coli BL21(DE3) cells cultured in Luria-Bertani (LB) medium until OD600 reached 0.6-0.8, then cooled to 15° C. and supplemented with 0.5 mM isopropyl 1-thio-D-galactopyranoside (IPTG) induce protein expression 16 h. Cells were harvested and resuspended in lysis buffer (50 mM HEPES pH 7.5, 500 mM NaCl, 5 mM imidazole, 5% glycerol, 0.5 mM Tris (2-carboxyethyl) phosphine (TCEP), cOmplete Protease Inhibitor Tablet (Roche)) and lysed by microfludics high pressure homogenizer (UH-06, Union-Biotech). Proteins were purified using […] chromatography (His FF column, Bestchrom) and eluted stepwise in binding buffer with 20-300 mM imidazole. Removal of the hexahistidine tag was performed at 4° C. overnight using recombinant TEV protease and reacted with BirA to obtain the corresponding biotinylated-AAK1, BIKE or GAK proteins. Further separated in the reverse Strep column (Strep-Tactin® XT, IBA). The Biotin elution sample was collected containing untagged biotinylated protein was then purified by Ion-exchange chromatography (Mono Q 10/100 GL, Cytiva) and Size-exclusion chromatography (HiLoad 16/600 Superdex 200 pg, Cytiva). The pure protein was stored in a storage buffer 50 mM HEPES (pH 7.5), 300 mM NaCl, 5% glycerol at −80° C. Protein were characterized by SDS-PAGE, LC-MS and aSEC.
This example describes one illustrative method for determining the IC50 of the compounds of the present invention against AAK1 (amino acids T27-A365). AAK1 protein was dissolved at 20 nM in 1× enzyme solution (50 mM HEPES pH7.5, 10 mM MgCl2, 1 mM DTT, 1% glycerol, 0.5 mM EGTA, 0.01% Briji35, 0.02% BSA) and 12.5 ul was incubated with 250 nl DMSO or 250 nl compound in DMSO at 25° C. for 15 min. The reaction was started by addition of 12.5 ul of 30 uM AQT0759 (Assayquant, CSKS-AQT0759B) and 70 uM ATP which were diluted in 1× substrate dilution buffer (50 mM HEPES pH7.5, 10 mM MgCl2, 1 mM DTT, 1% glycerol, 0.5 mM EGTA, 0.01% Briji35).

AAK1, sequence (Q2M2I8 whole entry): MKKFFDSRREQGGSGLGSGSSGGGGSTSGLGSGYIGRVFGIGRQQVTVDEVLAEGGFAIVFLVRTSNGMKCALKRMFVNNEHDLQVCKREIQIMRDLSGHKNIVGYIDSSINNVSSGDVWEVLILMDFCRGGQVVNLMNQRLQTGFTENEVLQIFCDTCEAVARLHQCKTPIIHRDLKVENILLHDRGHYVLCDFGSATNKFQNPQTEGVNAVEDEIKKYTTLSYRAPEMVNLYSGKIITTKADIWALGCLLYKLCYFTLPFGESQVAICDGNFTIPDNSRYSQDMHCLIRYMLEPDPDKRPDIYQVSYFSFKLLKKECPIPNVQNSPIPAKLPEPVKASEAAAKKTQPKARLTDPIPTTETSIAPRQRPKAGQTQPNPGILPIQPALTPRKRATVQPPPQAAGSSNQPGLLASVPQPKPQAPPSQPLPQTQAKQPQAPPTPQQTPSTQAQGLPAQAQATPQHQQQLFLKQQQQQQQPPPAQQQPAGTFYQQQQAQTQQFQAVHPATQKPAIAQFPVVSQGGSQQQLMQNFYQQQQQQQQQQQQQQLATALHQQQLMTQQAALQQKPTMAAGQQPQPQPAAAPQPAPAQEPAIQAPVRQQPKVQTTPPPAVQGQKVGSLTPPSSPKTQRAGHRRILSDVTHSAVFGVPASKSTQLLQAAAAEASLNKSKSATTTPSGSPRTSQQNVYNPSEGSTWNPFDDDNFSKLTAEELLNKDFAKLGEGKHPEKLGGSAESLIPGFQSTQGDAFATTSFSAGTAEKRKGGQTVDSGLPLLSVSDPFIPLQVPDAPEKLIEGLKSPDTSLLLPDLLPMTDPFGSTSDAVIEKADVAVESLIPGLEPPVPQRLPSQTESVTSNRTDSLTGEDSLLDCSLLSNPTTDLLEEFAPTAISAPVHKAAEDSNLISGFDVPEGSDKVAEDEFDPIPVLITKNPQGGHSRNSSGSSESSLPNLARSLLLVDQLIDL

Structure (SMILES)	pIC50 (AAK1)	pIC50 [1]
COC(=O)N1CC(Oc2ncccc2-c2cnn3ccc(N4CCN(C(=O)O[C@@H]5CC(=O)N(CCO)C5)CC4)nc23)C1 [Compound I-84, [(3R)-1-(2-hydroxyethyl)-5-oxo-pyrrolidin-3-yl]4-[3-[2-(1-methoxycarbonylazetidin-3-yl)oxy-3-pyridyl]pyrazolo[1,5-a]pyrimidin-5-yl]piperazine-1-carboxylate]	< 5.82	6.30 to 6.82
O=C1NCC[C@H]1OC(=O)N1CCN(c2ccn3ncc(-c4cccnc4OC4CC4)c3n2)CC1 [Compound I-23, [(3R)-2-oxopyrrolidin-3-yl]-4-[3-[2-(cyclopropoxy)-3-pyridyl]pyrazolo[1,5-a]pyrimidin-5-yl]piperazine-1-carboxylate]	< 5.82	6.82 to 7.29
O=C(O[C@@H]1CC(=O)N(C2CCNCC2)C1)N1CCN(c2ccn3ncc(-c4cccnc4OC4CC4)c3n2)CC1 [Compound I-33, (R)-5-Oxo-1-(piperidin-4-yl)pyrrolidin-3-yl 4-(3-(2-cyclopropoxypyridin-3-yl)pyrazolo[1,5-a]pyrimidin-5-yl)piperazine-1-carboxylate]	< 5.82	< 5.82
CC(C)(C)OC(=O)N1CC(Nc2ncccc2-c2cnn3ccc(N4CCN(C(=O)O[C@@H]5CNC(=O)C5)CC4)nc23)C1 [Compound I-48, [(3S)-5-oxopyrrolidin-3-yl]4-[3-[2-[(1-tert-butoxycarbonylazetidin-3-yl)amino]-3-pyridyl]pyrazolo[1,5-a]pyrimidin-5-yl]piperazine-1-carboxylate]	< 5.82	5.82 to 6.30
CC1(OC(=O)N2CCN(c3ccn4ncc(-c5cccnc5OC5CCC5)c4n3)CC2)COC1 [Compound I-17, (3-Methyloxetan-3-yl) 4-[3-[2-(cyclobutoxy)-3-pyridyl]pyrazolo[1,5-a]pyrimidin-5-yl]piperazine-1-carboxylate]	5.82 to 6.30	7.30 to 9.00
O=C1C[C@H](OC(=O)N2CCN(c3ccn4ncc(-c5cccnc5NC5CNC5)c4n3)CC2)CN1 [Compound I-49, (S)-5-oxopyrrolidin-3-yl4-(3-(2-(azetidin-3-ylamino)pyridin-3-yl)pyrazolo[1,5-a]pyrimidin-5-yl)piperazine-1-carboxylate]	< 5.82	< 5.82
COC(=O)N1CC(Oc2ncccc2-c2cnn3ccc(N4CCN(C(=O)O[C@@H]5CC(=O)N(C)C5)CC4)nc23)C1 [Compound I-83, [(3R)-1-methyl-5-oxo-pyrrolidin-3-yl]4-[3-[2-(1-methoxycarbonylazetidin-3-yl)oxy-3-pyridyl]pyrazolo[1,5-a]pyrimidin-5-yl]piperazine-1-carboxylate]	5.82 to 6.30	7.30 to 9.00
CC1(OC(=O)N2CCN(c3ccn4ncc(-c5cccnc5OCC5CCC5)c4n3)CC2)COC1 [Compound I-19, 3-Methyloxetan-3-yl 4-(3-(2-(cyclobutylmethoxy)pyridin-3-yl)pyrazolo[1,5-a]pyrimidin-5-yl)piperazine-1-carboxylate]	< 5.82	6.30 to 6.82
Cc1cn2ncc(-c3cccnc3OC3CC3)c2nc1N1CCN(C(=O)O[C@H]2CC(=O)N(C)C2)CC1 [Compound I-111, [(3S)-1-methyl-5-oxo-pyrrolidin-3-yl]-4-[3-[2-(cyclopropoxy)-3-pyridyl]-6-methyl-pyrazolo[1,5-a]pyrimidin-5-yl]piperazine-1-carboxylate]	< 5.82	5.82 to 6.30
O=C(O[C@H]1CO[C@H]2OCC[C@H]21)N1CCN(c2ccn3ncc(-c4ccccc4OC4CC4)c3n2)CC1 [Compound I-68, [(3aS,4R,6aR)-2,3,3a,4,5,6a-hexahydrofuro[2,3-b]furan-4-yl]4-[3-[2-(cyclopropoxy)phenyl]pyrazolo[1,5-a]pyrimidin-5-yl]piperazine-1-carboxylate]	5.82 to 6.30	6.82 to 7.29
CN1C[C@@H](OC(=O)N2CCN(c3nc4c(-c5cccnc5OC5CCCCC5)cnn4cc3F)CC2)CC1=O [Compound I-123, [(3S)-1-methyl-5-oxo-pyrrolidin-3-yl]-4-[3-[2-(cyclohexoxy)-3-pyridyl]-6-fluoro-pyrazolo[1,5-a]pyrimidin-5-yl]piperazine-1-carboxylate]	< 5.82	6.30 to 6.82
CC(C)Nc1ncccc1-c1cnn2ccc(N3CCN(C(=O)O[C@@H]4CNC(=O)C4)CC3)nc12 [Compound I-47, [(3S)-5-oxopyrrolidin-3-yl]4-[3-[2-(isopropylamino)-3-pyridyl]pyrazolo[1,5-a]pyrimidin-5-yl]piperazine-1-carboxylate]	< 5.82	< 5.82
COc1cn2ncc(-c3cccnc3OC3CC3)c2nc1N1CCN(C(=O)O[C@H]2CC(=O)N(C)C2)CC1 [Compound I-110-9, [(3S)-1-methyl-5-oxo-pyrrolidin-3-yl]-4-[3-[2-(cyclopropoxy)-3-pyridyl]-6-methoxy-pyrazolo[1,5-a]pyrimidin-5-yl]piperazine-1-carboxylate]	< 5.82	< 5.82
COC(=O)N1CC(Oc2ncccc2-c2cnn3ccc(N4CCN(C(=O)O[C@@H]5CC(=O)N(C6COC6)C5)CC4)nc23)C1 [Compound I-85, [(3R)-1-(oxetan-3-yl)-5-oxo-pyrrolidin-3-yl]-4-[3-[2-(1-methoxycarbonylazetidin-3-yl)oxy-3-pyridyl]pyrazolo[1,5-a]pyrimidin-5-yl]piperazine-1-carboxylate]	< 5.82	5.82 to 6.30

Continued, values first:

pIC50 (AAK1)	pIC50 [1]	Structure (SMILES)
< 5.82	6.30 to 6.82	NC(=O)[C@@H]1CN(c2ccn3ncc(-c4cccnc4OC4CC4)c3n2)CCN1C(=O)O[C@@H]1CNC(=O)C1 [Compound I-41-6, (S)-5-Oxopyrrolidin-3-yl-(S)-2-carbamoyl-4-(3-(2-cyclopropoxypyridin-3-yl)pyrazolo[1,5-a]pyrimidin-5-yl)piperazine-1-carboxylate]
< 5.82	6.30 to 6.82	N#C[C@@H]1CN(c2ccn3ncc(-c4cccnc4OC4CC4)c3n2)CCN1C(=O)O[C@@H]1CNC(=O)C1 [Compound I-41, (S)-5-Oxopyrrolidin-3-yl (S)-2-cyano-4-(3-(2-cyclopropoxypyridin-3-yl)pyrazolo[1,5-a]pyrimidin-5-yl)piperazine-1-carboxylate]
< 5.82	< 5.82	CN1CC(Oc2ncccc2-c2cnn3ccc(N4CCN(C(=O)O[C@@H]5CNC(=O)C5)CC4)nc23)C1 [Compound I-44, (S)-5-Oxopyrrolidin-3-yl 4-(3-(2-((1-methylazetidin-3-yl)oxy)pyridin-3-yl)pyrazolo[1,5-a]pyrimidin-5-yl)piperazine-1-carboxylate]
< 5.82	6.30 to 6.82	COC(=O)[C@@H]1CN(c2ccn3ncc(-c4cccnc4OC4CC4)c3n2)CCN1C(=O)O[C@@H]1CNC(=O)C1 [Compound I-41-5, 2-Methyl 1-((S)-5-oxopyrrolidin-3-yl) (S)-4-(3-(2-cyclopropoxypyridin-3-yl)pyrazolo[1,5-a]pyrimidin-5-yl)piperazine-1,2-dicarboxylate]
< 5.82	5.82 to 6.30	O=C1C[C@H](OC(=O)N[C@@H]2CCN(c3ccn4ncc(-c5cccnc5OC5CC5)c4n3)C2)CN1 [Compound I-54, [(3S)-5-oxopyrrolidin-3-yl]N-[(3R)-1-[3-[2-(cyclopropoxy)-3-pyridyl]pyrazolo[1,5-a]pyrimidin-5-yl]pyrrolidin-3-yl]carbamate]
< 5.82	< 5.82	O=C1C[C@H](OC(=O)N2CCN(c3ccn4ncc(-c5cccnc5OC5CC5)c4n3)C[C@H]2C(=O)O)CN1 [Compound I-41-4C, (S)-4-(3-(2-Cyclopropoxypyridin-3-yl)pyrazolo[1,5-a]pyrimidin-5-yl)-1-((((S)-5-oxopyrrolidin-3-yl)oxy)carbonyl)piperazine-2-carboxylic acid]
< 5.82	6.30 to 6.82	C[C@@]1(OC(=O)N[C@@H]2CCN(c3ccn4ncc(-c5cccnc5OC5CC5)c4n3)C2)CCNC1 [Compound I-56, (R)-3-methylpyrrolidin-3-yl ((R)-1-(3-(2-cyclopropoxypyridin-3-yl)pyrazolo[1,5-a]pyrimidin-5-yl)pyrrolidin-3-yl)carbamate]
< 5.82	6.82 to 7.29	O=C1NCC[C@@H]1OC(=O)N1CCN(c2ccn3ncc(-c4cccnc4OC4CC4)c3n2)CC1 [Compound I-24, [(3S)-2-Oxopyrrolidin-3-yl]-4-[3-[2-(cyclopropoxy)-3-pyridyl]pyrazolo[1,5-a]pyrimidin-5-yl]piperazine-1-carboxylate]
